Data reported in publication PMC10341764 (International Journal of Molecular Sciences, 2023).

How the values were obtained:
ACAT = system: ACAT; parameters: method as in PMID 8937424, PMID 12536672; conditions: cited from earlier work
adrenals = conditions: cited from earlier work
cortical regions = system: cortical regions; parameters: method as in PMID 23427273; conditions: fed to mice for seven days; cited from earlier work
[1] = parameters: method as in PMID 12735237; conditions: cited from earlier work
ACAT2 = conditions: cited from earlier work
5xFAD mouse model = system: 5xFAD mouse model; parameters: method as in PMID 37157042; conditions: oral feeding for 60 days; cited from earlier work
ACAT1 = conditions: cited from earlier work
mouse model for EOAD = system: mouse model for EOAD; parameters: method as in PMID 15473963; conditions: slow-releasing pellet implanted underneath the mouse skin; cited from earlier work
[2] = HPLC/MS/MS analysis of F12511 content in plasma and tissues; format: in vivo; conditions: mouse, brain / plasma, intravenous, 46 mg F12511/kg; 12 to 24 h time point
Experimental: We also monitored the ACAT enzyme activities in various tissues 4 to 48 h after a single IV injection of nanoparticle F at 46 mg/kg.
Both compounds were dissolved in DMSO at 10 mg/mL and stored at −40 °C. Subsequent working dilutions were made in fresh acetonitrile (ACN) daily. Calibrators and quality control measures were used in the appropriate matrix: C57BL/6 plasma (anticoagulant: K3-EDTA, Innovative Research), brain homogenate, liver homogenate, and adrenal gland homogenate. The tissues were homogenized at 0.1 g/mL in diH2O by using stainless steel beads and a Next Advance Bullet Blender. All the samples (50 µL) were protein precipitated, with 150 µL of 10 ng/mL CP113,818 in ACN acting as an internal standard and added via vortex for 1 min and centrifugation for 5 min at 15,000 rpm. In total, 150 µL of supernatant was transferred to amber autosampler vials, and 10 µL was injected on the LC-MS/MS system. […] The heated ESI source was operated with a spray voltage of 4500 V, vaporizer temperature at 500 °C, capillary temperature at 250 °C, and sheath and auxiliary gases at 30 and 15 arbitrary units, respectively.

ACAT enzyme = ACAT enzyme activity in tissue homogenates after IV injection (mixed micelles assay); conditions: judged by ACAT inhibition in brain
Experimental: Based on this finding, we treated the animals with the inhibitor by IV injection, perfused the mice after the animals were treated (to remove blood contamination from the tissues), then prepared the tissue homogenates, and monitored the ACAT enzyme activity in these tissues by using the mixed micelles enzyme assay described previously [24, 39, 49, 50] (the mixed micelles assay measures the ACAT enzyme activity independent of endogenous lipid composition because it reconstitutes the ACAT protein in mixed micelles with a defined lipid composition).

[3] = parameters: method as in PMID 31646241; conditions: cited from earlier work

Structure (SMILES): CCCCCCCCC(SCCCCCC)C(=O)Nc1c(SC)cc(C)nc1SC (single isomer, unassigned) [enantiomeric isomer of CP113,818]
- activity as ACAT inhibitor (ACAT): inactive as an ACAT inhibitor
- adrenal toxicity (adrenals): causes severe adrenal toxicity

Structure (SMILES): O=C(O)C[C@H]1CC[C@H](c2ccc(NC(=O)c3nnc(Nc4ccc(F)c(F)c4)o3)cc2)CC1 [AZD3988]
- fine vacuolation in cortical regions (cortical regions): significant reduction in fine vacuolation in cortical regions

Structure (SMILES): CC(C)c1cc(C(C)C)c(CC(=O)NS(=O)(=O)Oc2c(C(C)C)cccc2C(C)C)c(C(C)C)c1 [CI1011, 2,6-bis(1-methylethyl)phenyl ((2,4,6-tris(1-methylethyl)phenyl)acetyl)sulfamate]
- clinical phase 1 safety tests [1]: passed clinical phase 1 safety tests
- Ki (ACAT2): 20000 nM
- amyloidopathy and other AD-like pathologies (5xFAD mouse model): ameliorated amyloidopathy and other AD-like pathologies
- Ki (ACAT1): 20 µM

Structure (SMILES): CCCCCCCC[C@H](SCCCCCC)C(=O)Nc1c(SC)cc(C)nc1SC [CP113,818]
- amyloidopathy (mouse model for EOAD): effective in suppressing amyloidopathy
- Ki (ACAT2): 20 nM
- adrenal accumulation and toxicity (adrenals; preclinical trial, animals): accumulated in adrenals in animals and caused toxicity
- Ki (ACAT1): 0.02 µM

Structure (SMILES): CCCCCCCCCCCCS[C@H](C(=O)Nc1cc(C)c(O)c(C)c1C)c1ccccc1 [F12511, (S)-2′,3′,5′-trimethyl-4′-hydroxy-alpha-dodecylthio-alpha-phenylacetanilide]
- Kp [2]: 0.005 to 0.01
- clinical phase 1 safety tests [1]: passed clinical phase 1 safety tests
- Ki (ACAT2): 110 nM
- permeability to the mouse brain as part of nanoparticles (ACAT enzyme): permeable to the mouse brain
- adrenal toxicity in animals (adrenals): did not cause adrenal toxicity in animals

Structure (SMILES): CSc1cc(C)nc(SC)c1NC(=O)CN1CCN(CCSc2nc3ccccc3[nH]2)CC1.Cl.Cl [K604, 2-[4-[2-(Benzimidazol-2-ylthio)ethyl]piperazin-1yl]-N-[2,4-bis(methylthio)-6-methyl-3-pyridyl]acetamide dihydrochloride]
- clinical phase 1 safety tests [1]: passed clinical phase 1 safety tests
- permeability to the mouse brain [3]: impermeable to the mouse brain
